This passage reports EC50 results from US20240018133A1, “MODULATORS OF THE INTEGRATED STRESS PATHWAY” (Calico Life Sciences LLC, priority 2019, published 2024).

This assay has as its system ATF4 luciferase reporter (human full-length ATF4 5'-UTR fused to firefly luciferase) in HEK293T cells. Kind of assay: ATF4-Luc assay (in vitro model of VWMD): HEK293T cells carrying ATF4 luciferase reporter, tunicamycin-treated. In kind it is cell-based. As to conditions: Homo sapiens, HEK-293T, 1 μg/mL tunicamycin, 7 hours, One Glo luminescence. The gist of the method: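 Compound at 200 nM and tunicamycin at 1 μg/mL were given together for 7 h to HEK293T cells stably transduced with an ATF4 5′-UTR-driven firefly luciferase reporter. Read-out by luminescence, reported as EC50.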

As for `O=C(NC12CCC(NC(=O)C3CC(=O)c4cc(Cl)ccc4O3)(C1)C2)c1ccc(OC(F)(F)F)cn1` (centres unmarked) [Compound 311, N-{4-[(6-chloro-4-oxo-3,4-dihydro-2H-1-benzopyran-2-carbonyl)amino]bicyclo[2.1.1]hexan-1-yl}-5-(trifluoromethoxy)pyridine-2-carboxamide], the concentration giving a half-maximal response (EC50) (usually the concentration that produces a half-maximal response) was in the range of 50 to 250 nM.
The result for `O=C(NC12CCC(NC(=O)C3CC(=O)c4cc(Cl)ccc4O3)(C1)C2)OCc1ccccc1` (centres unmarked) [Compound 312, benzyl {4-[(6-chloro-4-oxo-3,4-dihydro-2H-1-benzopyran-2-carbonyl)amino]bicyclo[2.1.1]hexan-1-yl}carbamate] reads 500 to 2000 nM; that for `O=C(COc1ccc(Cl)c(F)c1)NC12CC(NC(=O)c3cc(=O)c4ccc(F)cc4o3)(C1)C2` [Compound 313, N-{3-[2-(4-chloro-3-fluorophenoxy)acetamido]bicyclo[1.1.1]pentan-1-yl}-7-fluoro-4-oxo-4H-1-benzopyran-2-carboxamide], 10 to 50 nM; that for `CNC1CC(C(=O)NC23CC(NC(=O)COc4ccc(Cl)c(F)c4)(C2)C3)Oc2ccc(Cl)cc21` (centres unmarked) [Compound 314, 6-chloro-N-{3-[2-(4-chloro-3-fluorophenoxy)acetamido]bicyclo[1.1.1]pentan-1-yl}-4-(methylamino)-3,4-dihydro-2H-1-benzopyran-2-carboxamide], less than 10 nM.
Turning to `O=C(COc1ccc(Cl)c(F)c1)NC12CC(NC(=O)C3=CC(O)c4cc(Cl)ccc4O3)(C1)C2` (centres unmarked) [Compound 315, 6-chloro-N-{3-[2-(4-chloro-3-fluorophenoxy)acetamido]bicyclo[1.1.1]pentan-1-yl}-4-hydroxy-4H-1-benzopyran-2-carboxamide], the concentration for a half-maximal effect (EC50) was less than 10 nM.
Under `O=C(COc1ccc(Cl)c(F)c1)NC12CC(NC(=O)[C@@H]3C[C@@H](N[C@H]4C[C@@H](O)C4)c4cc(Cl)ccc4O3)(C1)C2` [Compound 316, (2S,4R)-6-chloro-N-{3-[2-(4-chloro-3-fluorophenoxy)acetamido]bicyclo[1.1.1]pentan-1-yl}-4-{[(1s,3S)-3-hydroxycyclobutyl]amino}-3,4-dihydro-2H-1-benzopyran-2-carboxamide] stands 50 to 250 nM.
`O=C(COc1ccc(Cl)c(F)c1)NC12CC(NC(=O)C3=Cc4ccc(Cl)cc4OC3)(C1)C2` [Compound 317, 7-chloro-N-{3-[2-(4-chloro-3-fluorophenoxy)acetamido]bicyclo[1.1.1]pentan-1-yl}-2H-1-benzopyran-3-carboxamide]: the EC50 lay within 10 to 50 nM.
Under `O=C(COc1ccc(Cl)c(F)c1)NC12CC(NC(=O)c3cc(=O)c4cc(Cl)ccc4o3)(C1)C2` [Compound 318, 6-chloro-N-{3-[2-(4-chloro-3-fluorophenoxy)acetamido]bicyclo[1.1.1]pentan-1-yl}-4-oxo-4H-1-benzopyran-2-carboxamide] stands less than 10 nM.
In the case of `O=C(COc1ccc(Cl)c(F)c1)NC12CC(NC(=O)[C@@H]3C[C@H](NCC(F)(F)F)c4cc(Cl)ccc4O3)(C1)C2` [Compound 319, (2S,4S)-6-chloro-N-{3-[2-(4-chloro-3-fluorophenoxy)acetamido]bicyclo[1.1.1]pentan-1-yl}-4-[(2,2,2-trifluoroethyl)amino]-3,4-dihydro-2H-1-benzopyran-2-carboxamide], the EC50 was 50 to 250 nM.
Under `C[C@@]1(C(=O)NC23CC(NC(=O)COc4ccc(Cl)c(F)c4)(C2)C3)Oc2ccc(Cl)cc2C1=O` [Compound 320, (2R)-5-chloro-N-{3-[2-(4-chloro-3-fluorophenoxy)acetamido]bicyclo[1.1.1]pentan-1-yl}-2-methyl-3-oxo-2,3-dihydro-1-benzofuran-2-carboxamide] stands 500 to 2000 nM.
Under `O=C(COc1ccc(F)c(F)c1)NC12CC(NC(=O)[C@@H]3CC(=O)c4cc(F)c(F)cc4O3)(C1)C2` [Compound 321, (2S)—N-{3-[2-(3,4-difluorophenoxy)acetamido]bicyclo[1.1.1]pentan-1-yl}-6,7-difluoro-4-oxo-3,4-dihydro-2H-1-benzopyran-2-carboxamide] stands 50 to 250 nM.
